# Measured values taken from paper PMC6430500, “3-Fluoro-4-hydroxyprolines: Synthesis, Conformational Analysis, and Stereoselective Recognition by the VHL E3 Ubiquitin Ligase for Targeted Protein Degradation” (Journal of the American Chemical Society, 2018).
# Like-named read-outs stand apart in the source and are kept apart here. Marks after values point to notes of the source that are not given here. *1 amine or outer side, *2 acyl side, *3 side chain or, on linkers, in order; H or OH if unused. Where a SMILES comes first, the peptide text is derived from it. [ ]: non-standard residue; d: D form. X1 = O=C([C@@H]1[C@@H](F)[C@@H](O)CN1[*:1])[*:2]; X2 = O=C([C@@H]1[C@H](F)[C@@H](O)CN1[*:1])[*:2]
# How the values were obtained:
# [1] = target: T1, VBC (VHL, elongin B, elongin C) (Homo sapiens, UniProt P40337); assay: ITC of peptides and ligands against VBC; assay type: binding; details: for Kd / ΔG / ΔH / –TΔS: ITC, 25°C; for Kd: mean ± s.e.m.; for fold difference in binding affinity compared to VH032: relative to VH032 Kd
# T1 construct: VHL (54–213), ElonginC (17–112) and; His6 (N, cleaved yes); made in house; host or cells: Escherichia coli BL21(DE3)
# T1 sequence (P40337 54-213): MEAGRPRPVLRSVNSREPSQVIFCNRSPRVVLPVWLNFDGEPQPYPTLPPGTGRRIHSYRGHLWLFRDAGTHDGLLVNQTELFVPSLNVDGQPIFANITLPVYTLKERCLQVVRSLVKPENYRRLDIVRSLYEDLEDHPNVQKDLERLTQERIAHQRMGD
# T1 sequence (Q15369 17-112 partner limits assumed): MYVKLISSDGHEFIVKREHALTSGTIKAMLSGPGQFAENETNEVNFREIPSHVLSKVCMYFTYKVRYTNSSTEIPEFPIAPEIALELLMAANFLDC
# T1 sequence (Q15370 1-104 partner limits assumed): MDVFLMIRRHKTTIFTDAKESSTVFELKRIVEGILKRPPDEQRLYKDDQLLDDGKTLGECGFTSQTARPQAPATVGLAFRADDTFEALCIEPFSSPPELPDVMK
# [2] = Intrinsic clearance in mouse liver microsomes; assay type: in vitro ADME; details: 0.5 µM
# Procedure: (§1) Test compound (10 µM) was incubated in pre-warmed plasma at 37 ᵒC (that is buffered to pH 7.4 in ratio of 70:30 plasma to buffer). Immediately, at time zero, then at 30, 60, 120, and 180 min, a 50 µL aliquot of the incubation mixture was removed and mixed with 200 µL acetonitrile containing Donepezil as the internal standard (50 ng/ml) to stop the reaction. The samples were centrifuged to sediment the precipitated protein and the plates then sealed prior to UPLC-MS/MS analysis using a Quattro Premier XE (Waters Corporation, USA).
# (§2) XLfit (IDBS, UK) was used to calculate the exponential decay and consequently the rate constant (k) from the ratio of peak area of test compound to internal standard at each time point. The half-life was calculated for each test compound from the rate by using the following calculation:
# (§3) Test compound (0.5 µM) was incubated with female CD1 mouse liver microsomes (Xenotech LLC TM; 0.5 mg/mL in 50mM potassium phosphate buffer, pH 7.4) and the reaction started with addition of excess NADPH (8 mg/mL 50 mM potassium phosphate buffer, pH 7.4). […]
# (§4) from the ratio of peak area of test compound to internal standard at each time point. The rate of intrinsic clearance (CLi) of each test compound was then calculated using the following calculation: […]
# CHI Log D determination = assay type: physicochemical; details: reversed-phase HPLC, Phenomenex Luna C18 column, pH 7.4; read-out: CHI LogD7.4
# Procedure: Using a fast gradient, reverse-phase HPLC method to determine the chromatographic hydrophobicity index (CHI) was determined as described by Camurri and Zaramella (ref. 26) and Valko et al. (ref. 27).
# Briefly, by plotting the retention time of a set of reference compounds against known CHI values. The CHI value of test compounds was then calculated according to their retention time.
# Test compounds were prepared as 0.5 mM solutions in 50:50 acetonitrile:water and analysed by reversed-phase HPLC-UV (wavelength 254 nm) using a Phenomenex Luna C18 100Å 150 x 4.6mm 5 micron column with a gradient of aqueous phase (50 mM ammonium acetate, pH 7.4) and mobile
# Plasma stability = assay type: in vitro ADME; details: 37 °C, pH 7.4, read-out: plasma stability T1/2
# Procedure: as §1, §2, §3, §4
# [3] = Parallel artificial membrane permeability assay (PAMPA); assay type: in vitro ADME; details: pH 7.4, 10 µM
# Procedure: Parallel Artificial Membrane Permeability Assay (PAMPA)
# PAMPA was performed using a 96-well pre-coated BD Gentest™ PAMPA plate (BD Biosciences, U.K.). Each well was divided into two chambers; donor and acceptor, separated by a lipid-oil-lipid tri-layer constructed in a porous filter. The effective permeability, Pe, of the compound was measured at pH 7.4. Stock solutions (5 mM) of the compound were prepared in DMSO. The compound was then further diluted to 10 µM in phosphate buffered saline at pH 7.4. The final DMSO concentration did not exceed 5% v/v. The compound dissolved in phosphate buffered saline was then added to the donor side of the membrane and phosphate buffered saline without compound was added to the acceptor side. The PAMPA plate was left at room temperature for 5 h. After which time, an aliquot (100 µl) was then removed from both acceptor and donor compartments and mixed with acetonitrile (80 µl) containing an internal standard. The samples were centrifuged (10 min, 5 °C, 3270 g) to sediment precipitated protein and sealed prior to UPLC-MS/MS analysis using a Quattro Premier XE (Waters Corp, USA). Pe was calculated as shown in the below equation: […]
# C D(t)= peak area of compound present in donor well at time t = 18000 s Recovery of compound from donor and acceptor wells was calculated and data was only accepted when recovery exceeded 70%.
# MV4;11 cells = assay: CellTiter-Glo cell viability assay; assay type: cell-based; details: for EC50: MV4-11, 72 h
# Procedure: MV4;11 cells (15000 cells per well) were dosed for 72 h with compounds serially diluted (1:3) on a clear-bottom 384-well plate with a final concentration of 0.05% (v/v) DMSO. After treatment, Promega CellTiter-Glo luminescent cell viability assay (G7572) was added to the cells according to the manufacturer instructions. The signal from each well was recorded on a BM G Labtech Pherastar luminescence plate reader with recommended settings.
# Normalized data were analyzed and plotted with Graphpad Prism software in the ‘log(inhibitor) vs. response -- Variable slope (four parameters)’ module. EC50 values of each test compound were […]
# A549 cells = assay: A549 colony-formation assay; assay type: cell-based; details: 7 days, crystal violet
# Procedure: A549 Colony-Formation Assay
# A549 cells were seeded in clear, Nunc™ Edge 2.0 96 -w ell plates (Thermo Scientific) at 1000 cells per well and incubated at 37°C in DMEM. After 24 h cells were treated with test compounds from 10 µM to 100 nM , with a final DM SO of 0.1%. The cells were left to grow until DM SO -treated wells reached ~100% confluence (~8 days), at which point they were washed with PBS, fixed with 100% MeOH (30 min 4°C), stained with 0.1% crystal violet (30 min at r.t.) and left to dry overnight. Once dried plates were imaged on an Epson Perfection V800 scanner, at a resolution of 1200 DPI and in 48 -bit colour.
# For dose-response curves, crystal-violet dye was extracted by the addition of 200 µl 1% SDS to each well, and incubation for 3 h at r.t. The absorbance at 595nm of each well was measured on a Pherastar FS (BMG), normalised for each compound and plotted against compound concentration.
# (1 picture or pasted object on this page, not shown here)
# [4] = parameters: method as in Frost et al. 40; details: ref Frost et al. 40; cited from earlier work
# [5] = parameters: method as in Frost et al. 40; details: ref Frost et al. 40; cited from earlier work; remark: listed apart in the source
# [6] = parameters: method as in Frost et al. 40; details: ref Frost et al. 40; cited from earlier work; remark: listed apart in the source
structure (smiles),measurement,setting,value
CC[C@H](C)[C@H](NC(=O)[C@H](Cc1ccc(O)cc1)NC(=O)[C@@H]1[C@@H](F)[C@@H](O)CN1C(=O)[C@H](C)NC(=O)[C@H](CC(C)C)NC(=O)[C@H](C)NC(=O)[C@H](CCC(=O)O)NC(=O)[C@@H](N)CC(=O)O)C(=O)N1CCC[C@H]1C(=O)N[C@@H](CCSC)C(=O)N[C@@H](CC(=O)O)C(=O)N[C@@H](CC(=O)O)C(=O)N[C@@H](CC(=O)O)C(=O)N[C@@H](Cc1ccccc1)C(=O)N[C@@H](CCC(N)=O)C(=O)N[C@@H](CC(C)C)C(=O)N[C@@H](CCCNC(=N)N)C(=O)N[C@@H](CO)C(=O)N[C@@H](Cc1ccccc1)C(N)=O [13a] (H-DEALA[X1]YIPMDDDFQLRSF-NH2),Kd,[1],12 ± 2 nM
CC[C@H](C)[C@H](NC(=O)[C@H](Cc1ccc(O)cc1)NC(=O)[C@@H]1[C@H](F)[C@@H](O)CN1C(=O)[C@H](C)NC(=O)[C@H](CC(C)C)NC(=O)[C@H](C)NC(=O)[C@H](CCC(=O)O)NC(=O)[C@@H](N)CC(=O)O)C(=O)N1CCC[C@H]1C(=O)N[C@@H](CCSC)C(=O)N[C@@H](CC(=O)O)C(=O)N[C@@H](CC(=O)O)C(=O)N[C@@H](CC(=O)O)C(=O)N[C@@H](Cc1ccccc1)C(=O)N[C@@H](CCC(N)=O)C(=O)N[C@@H](CC(C)C)C(=O)N[C@@H](CCCNC(=N)N)C(=O)N[C@@H](CO)C(=O)N[C@@H](Cc1ccccc1)C(N)=O [13b] (H-DEALA[X2]YIPMDDDFQLRSF-NH2),Kd,[1],52 ± 3 nM
"CC[C@H](C)[C@H](NC(=O)[C@H](Cc1ccc(O)cc1)NC(=O)[C@@H]1C[C@@H](O)CN1C(=O)[C@H](C)NC(=O)[C@H](CC(C)C)NC(=O)[C@H](C)NC(=O)[C@H](CCC(=O)O)NC(=O)[C@@H](N)CC(=O)O)C(=O)N1CCC[C@H]1C(=O)N[C@@H](CCSC)C(=O)N[C@@H](CC(=O)O)C(=O)N[C@@H](CC(=O)O)C(=O)N[C@@H](CC(=O)O)C(=O)N[C@@H](Cc1ccccc1)C(=O)N[C@@H](CCC(N)=O)C(=O)N[C@@H](CC(C)C)C(=O)N[C@@H](CCCNC(=N)N)C(=O)N[C@@H](CO)C(=O)N[C@@H](Cc1ccccc1)C(N)=O [13c, reference compound]",Kd,[1],11 ± 1 nM
CC(=O)N[C@H](C(=O)N1C[C@H](O)[C@H](F)[C@H]1C(=O)NCc1ccc(-c2scnc2C)cc1)C(C)(C)C [14a],ΔG,[1],–9.02 ± 0.01 kcal/mol
same,ΔH,[1],–7.2 ± 0.5 kcal/mol
same,–TΔS,[1],–1.8 ± 0.5 kcal/mol
same,fold difference in binding affinity compared to VH032,[1],≤ 2 fold
same,mouse microsomal stability,[2],<0.50 mL/min/g liver
same,chromatographic logD,CHI Log D determination,1.3
same,half-life at 10 µM,Plasma stability,> 180 min
same,"Papp at 5 h, 10 µM",[3],0.23 ×10⁻⁶ cm/s
CC(=O)N[C@H](C(=O)N1C[C@H](O)[C@@H](F)[C@H]1C(=O)NCc1ccc(-c2scnc2C)cc1)C(C)(C)C [14b],ΔG,[1],–7.55 ± 0.03 kcal/mol
same,ΔH,[1],–3.9 ± 0.5 kcal/mol
same,–TΔS,[1],–3.8 ± 0.4 kcal/mol
same,Kd,[1],3080 nM
same,fold difference in binding affinity compared to VH032,[1],~20 fold
same,mouse microsomal stability,[2],0.68 mL/min/g liver
same,chromatographic logD,CHI Log D determination,1.3
same,half-life at 10 µM,Plasma stability,> 180 min
same,"Papp at 5 h, 10 µM",[3],0.081 ×10⁻⁶ cm/s
"Cc1ncsc1-c1ccc(CNC(=O)[C@@H]2C[C@@H](O)CN2C(=O)[C@@H](NC(=O)COCCOCCOCCNC(=O)C[C@@H]2N=C(c3ccc(Cl)cc3)c3c(sc(C)c3C)-n3c(C)nnc32)C(C)(C)C)cc1 [MZ1, reference compound]","pEC50, antiproliferative activity",MV4;11 cells; 72 h,7.3
same,Emax,"MV4;11 cells; Homo sapiens, 72 h, read-out: Emax, maximal response at highest concentration",98%
same,EC50,"MV4;11 cells; Homo sapiens, read-out: EC50, antiproliferative activity",54.7 nM
same,EC50,"MV4;11 cells; Homo sapiens, read-out: pEC50, antiproliferative activity (converted)",54.7 nM
same,"effect on cell growth, colony formation (in words)",A549 cells,profound concentration-dependent cytotoxicity
CC(=O)N[C@H](C(=O)N1C[C@H](O)C[C@H]1C(=O)NCc1ccc(-c2scnc2C)cc1)C(C)(C)C [VH032],plasma stability T1/2,[4],>180 ^a min
same,mouse microsomal stability,[5],0.70 ^a mL/min/g liver
same,CHI LogD7.4,[6],0.90 ^a
